Experimental data published in patent publication US9012655B2, “Antimicrobial/adjuvant compounds and methods” (Denouamed, Inc., priority 2011, dated 2015).
Values after ≈ are worked out from the molar mass of the structure shown.

Assays:
[1] = target: AcpS enzyme (Escherichia coli, UniProt P24224); assay: Measurement of AcpS inhibition ([3H]acetyl-CoA incorporation into apo-ACP); type: biochemical; details: % activity vs blank-subtracted counts; for activity at 50 µM / % AcpS activity at 50 uM: test compound 50 uM; for remaining activity at 500 µM / % AcpS activity @ 500 uM: test compound 500 uM
AcpS enzyme, sequence (P24224 whole entry): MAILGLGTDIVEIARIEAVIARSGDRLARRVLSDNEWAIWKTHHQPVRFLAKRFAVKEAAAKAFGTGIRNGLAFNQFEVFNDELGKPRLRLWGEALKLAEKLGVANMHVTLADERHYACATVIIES
Experimental: [^3H]Acetyl-CoA was mixed as 1 volume of Perkin Elmer NET290 radiolabeled stock (e.g. 0.1 mCi/ml, 3.7 Ci/mmol in Na-acetate, pH 4.5-5.0=27 μM) with 1.2 volumes of 1 mM unlabelled acetyl-CoA (Sigma). Trichloroacetic acid was prepared as a 10% w/v solution. Bovine serum albumin was prepared as a 25 mg/ml solution in water. DTT was prepared as a 50 mM solution in water.
• 1. A standard reaction contained the following in a total volume of 10 μl:
• 2. Tubes were incubated at RT. [^3H]acetyl-CoA was added last to start the reaction. To stop the reaction, 2 μl was removed to a 1.5-ml microfuge tube containing 800 μl cold 10% TCA. Up to four time points were collected for each reaction, e.g. at 5 min, 10 min, 30 min, and 60 min. • 3. 20 μl of 25 mg/ml BSA was added to each tube, mixed and incubated on ice for 10 min, then centrifuged at 12,000 g for 5 min to form a pellet. Supernatant was removed using P1000. • 4. Each pellet was washed twice with 800 μl of cold 10% TCA each time, then centrifuged at 12,000 g for 5 min after each wash. The supernatant was discarded. Each pellet was resuspended in 50 μl of formic acid. The suspension was transferred to a scintillation vial and radioactivity was measured in 2 ml of liquid scintillation cocktail.
The random (stochastic) error in scintillation counting is proportional to the square root of the counts (not dpm) accumulated in the counting period; i.e. 10% for 100, 3.3% for 1,000, 1% for 10,000, etc. Provided radioactive counts (dpm) are in the thousands, the assay provides useful data. Results are reported in terms of % activity with respect to the blank-subtracted counts for working substrate. A % activity of less than about 40% is indicative of AcpS enzyme inhibition by the test compound at that concentration.

[2] = test system: Methicillin-Resistant Staph. aureus (MRSA); assay: MIC, NCCLS M7-A6 broth microdilution, MRSA; type: cell-based; details: 16 to 20 h, 35 degrees Celsius; for MIC: Staphylococcus aureus, MRSA
Experimental: (§1) Susceptibilities to the compounds were determined using the National Committee for Clinical Laboratory Standards (NCCLS) M7-A6 broth microdilution method. Cation-adjusted Mueller-Hinton broth (Ca^2+, 25 μg/mL; Mg^2+, 12.5 μg/mL) microdilution panels were prepared to contain antimicrobial doubling dilution concentrations of an appropriate range. DMSO (dimethylsulfoxide) controls were incorporated into the panel to mimic the quantity of DMSO used in dissolving some of the compounds at the higher concentrations. Each final panel well volume was 100 μL with a bacterial inoculum of 5×10^5 CFU (colony forming units)/mL of the relevant bacterium. Panels were read following 16 to 20 h of incubation at 35 degrees Celsius in ambient air. The MIC (minimum inhibitory concentration) was defined as the lowest concentration of antimicrobial inhibiting visible growth.

[3] = test system: E. coli D22; assay: MIC, NCCLS M7-A6 broth microdilution, E. coli D22; type: cell-based; details: 35 degrees Celsius; for MIC: Escherichia coli, D22, 16 to 20 h; for MIC E coli D22: 16 to 20 h
Experimental: as §1

| SMILES | activity at 50 µM [1] [%] | remaining activity at 500 µM [1] [%] | MIC [2] [µM] | MIC [3] [µM] | % AcpS activity @ 500 uM [1] [%] | MIC MRSA [2] [µM] | MIC E coli D22 [3] [µM] | % AcpS activity at 50 uM [1] [%] |
| --- | --- | --- | --- | --- | --- | --- | --- | --- |
| Cc1ccc(-c2cc(-c3nnn[nH]3)sc2-c2ccc(C)cc2Cl)c(Cl)c1 [DNM0563, 5-(4,5-Bis(2-chloro-4-methylphenyl)thiophen-2-yl)-1H-tetrazole] | 15.1 | 0.56 | 8 (≈ 3.21 µg/mL) | 125 (≈ 50.2 µg/mL) |  |  |  |  |
| Fc1ccc(-c2cc(-c3nnn[nH]3)sc2Cc2ccc(Cl)cc2)c2ccccc12 [DNM0587, 5-(5-(4-Chlorobenzyl)-4-(4-fluoronaphthalen-1-yl)thiophen-2-yl)-1H-tetrazole] | 2.13 | 0 | 8 (≈ 3.37 µg/mL) |  |  |  |  |  |
| c1ccc(Oc2ccc(-c3ccc(-c4ccc(Oc5ccccc5)cc4)c(-c4nn[nH]n4)c3)cc2)cc1 [DNM0453] |  |  |  |  | 23.76 | 8 (≈ 3.86 µg/mL) | >125 |  |
| CC(C)c1ccccc1-c1cc(-c2nnn[nH]2)sc1-c1ccccc1C(C)C [DNM0534, 5-(4,5-Bis(2-isopropylphenyl)thiophen-2-yl)-1H-tetrazole] | 34 | 0 | 8 (≈ 3.11 µg/mL) | > 125 |  |  |  |  |
| Clc1ccccc1-c1cc(-c2nnn[nH]2)sc1-c1ccccc1Cl [DNM0538, 5-(4,5-Bis(2-chlorophenyl)thiophen-2-yl)-1H-tetrazole] | 82.2 | 0.58 | 30 (≈ 11.2 µg/mL) | > 125 |  |  |  |  |
| Cc1ccc(-c2sc(-c3nnn[nH]3)cc2-c2ccc(Cl)cc2)c2ccccc12 [DNM0572, 5-(4-(4-Chlorophenyl)-5-(4-methylnaphthalen-1-yl)thiophen-2-yl)-1H-tetrazole] | 4.41 | 0.51 | 8 (≈ 3.22 µg/mL) | > 125 |  |  |  |  |
| Cc1ccc(-c2cc(-c3nn[nH]n3)cc(-c3ccc(C)cc3-c3ccccc3)c2)c(-c2ccccc2)c1 [DNM0516] |  |  |  |  | 5 | 2 (≈ 0.957 µg/mL) | >125 | 32.01 |
| Cc1ccc(C2(c3cccc(Cl)c3)C=C(c3nnn[nH]3)SC2)c2ccccc12 (stereo not shown) [DNM0575, 5-(4-(5-Chlorophenyl)-4-(4-methylnaphthalen-1-yl)thiophen-2-yl)-1H-tetrazole] | 5.86 | 0.23 | 8 (≈ 3.24 µg/mL) | > 125 |  |  |  |  |
| CN(C)c1ccc(Cl)cc1-c1cc(-c2nn[nH]n2)cc(-c2cc(Cl)ccc2N(C)C)c1 [DNM0510] |  |  |  |  | 0.12 | 4 (≈ 1.81 µg/mL) | >125 | 8.4 |
| Clc1cccc(-c2ccccc2-c2cc(-c3nn[nH]n3)cc(-c3ccccc3-c3cccc(Cl)c3)c2)c1 [DNM0493] |  |  |  |  | 2.7 | 4 (≈ 2.08 µg/mL) | >125 | 25.28 |
| Cc1ccc(-c2cc(-c3nnn[nH]3)sc2-c2ccc(C)c(Cl)c2)cc1Cl [DNM0504, 5-(4,5-Bis(3-chloro-4-methylphenyl)thiophen-2-yl)-1H-tetrazole] | 7.33 | 0.16 | 125 (≈ 50.2 µg/mL) | 125 (≈ 50.2 µg/mL) |  |  |  |  |
| Cc1ccccc1-c1cc(-c2nn[nH]n2)cc(-c2ccccc2C)c1 [DNM0529] |  |  |  |  | 0.16 | 30 (≈ 9.79 µg/mL) | >125 | 91.56 |
| Clc1ccc(Cc2sc(-c3nnn[nH]3)cc2-c2ccccc2-c2ccccc2)cc1 [DNM0588, 5-(4-(Biphenyl-2-yl)-5-(4-chlorobenzyl)thiophen-2-yl)-1H-tetrazole] | 2.67 | 0 | 8 (≈ 3.43 µg/mL) |  |  |  |  |  |
| Cc1ccc(-c2cc(-c3nn[nH]n3)cc(-c3ccc(C)cc3Br)c2)c(Br)c1 [DNM0511] |  |  |  |  | 0 | 8 (≈ 3.87 µg/mL) | >125 | 14.36 |
| Cc1ccc(-c2cc(-c3nnn[nH]3)sc2Cc2ccc(Cl)cc2)c2ccccc12 [DNM0577, 5-(5-(4-Chlorobenzyl)-4-(4-methylnaphthalen-1-yl)thiophen-2-yl)-1H-tetrazole] | 5.54 | 0.4 | 8 (≈ 3.34 µg/mL) | > 125 |  |  |  |  |
| CCc1ccccc1-c1cc(-c2nnn[nH]2)sc1-c1ccccc1CC [DNM0541, 5-(4,5-Bis(2-ethylphenyl)thiophen-2-yl)-1H-tetrazole] | 63.1 | 0.3 | 30 (≈ 10.8 µg/mL) | > 125 |  |  |  |  |
| Clc1ccc(-c2cc(-c3ccc(Cl)cc3)cc(-c3nn[nH]n3)c2)cc1 [DNM0470, 5-(3,5-Bis(4-chlorophenyl)phenyl)-2H-tetrazole] |  | 27.7 | 4 (≈ 1.47 µg/mL) | 125 (≈ 45.9 µg/mL) |  |  |  |  |
| Cc1ccc(-c2cc(-c3nnn[nH]3)sc2-c2ccc(C)c(C)c2)cc1C [DNM0509, 5-(4,5-Bis(3,4-dimethylphenyl)thiophen-2-yl)-1H-tetrazole] | 31.1 | 0.2 | 15 (≈ 5.41 µg/mL) | > 125 |  |  |  |  |
| Cc1cc(Cl)ccc1-c1ccc(-c2ccc(Cl)cc2C)c(-c2nnn[nH]2)c1 [DNM0447, 5-(2,5-Bis(4-chloro-2-methylphenyl)phenyl)-1H-tetrazole] | 32.6 | 0.47 | 15 (≈ 5.93 µg/mL) | > 125 |  |  |  |  |
| Fc1ccc(-c2cc(-c3nn[nH]n3)cc(-c3ccc(F)c4ccccc34)c2)c2ccccc12 [DNM0539, 5-(3,5-Bis(4-fluoronaphthalen-1-yl)phenyl)-2H-tetrazole] |  | 39.4 | 8 (≈ 3.48 µg/mL) | > 125 |  |  |  |  |
| c1ccc(C2CC2)c(-c2cc(-c3nnn[nH]3)sc2-c2ccccc2C2CC2)c1 [DNM0570] |  |  |  |  | 0.19 | 15 (≈ 5.77 µg/mL) | 125 (≈ 48.1 µg/mL) | 33.7 |
| FC(F)(F)c1ccccc1-c1cc(-c2nnn[nH]2)sc1-c1ccccc1C(F)(F)F [DNM0549, 5-(4,5-Bis(2-(trifluoromethyl)phenyl)thiophen-2-yl)-1H-tetrazole] | 71.3 | 0.48 | 30 (≈ 13.2 µg/mL) | > 125 |  |  |  |  |
| CC(C)c1ccc(-c2cc(-c3nnn[nH]3)sc2-c2ccc(C(C)C)cc2)cc1 [DNM0512, 5-(4,5-Bis(4-isopropylphenyl)thiophen-2-yl)-1H-tetrazole] | 37.3 | 0.7 | 8 (≈ 3.11 µg/mL) | > 125 |  |  |  |  |
| COc1c(C)cc(-c2cc(-c3nnn[nH]3)sc2-c2cc(C)c(OC)c(C)c2)cc1C [DNM0564, 5-(4,5-Bis(4-methoxy-3,5-dimethylphenyl)thiophen-2-yl)-1H-tetrazole] | 47.6 | 0.75 | 15 (≈ 6.31 µg/mL) | > 125 |  |  |  |  |
